Test results as given in publication PMC12259270, “Sensory neuron–expressed FGF13 controls nociceptive signaling in diabetic neuropathy models” (The Journal of Clinical Investigation, 2025).
Residues, ends and D or L forms follow the SMILES beside them. *: point of attachment. Cbz = O=C(OCc1ccccc1)*; OtBu = CC(C)(C)O*

Molecular target: T1, human Nav1.7 (Homo sapiens, UniProt Q15858)
T1 construct: expressed in transfected cells; host or cells: HEK293 stably expressing human Nav1.7
Test: Whole-cell patch-clamp, HEK293 cells stably expressing human Nav1.7 with GFP or FGF13-GFP
Assay type: cell-based
Conditions: for Time constant of repriming, Mean: Fig 1L, PW164; for Activation / Long-term inactivation, 2nd Pulse / Long-term inactivation, 3rd Pulse / Long-term inactivation, 4th Pulse / Peak Density / Steady state inactivation / Tau (τ): HEK293 Nav1.7
Protocol: Whole-cell patch clamp electrophysiology
HEK293-Nav1.7 cells, HEK293 stably expressing human Nav1.6 (HEK-Nav1.6), HEK293 stably expressing human Nav1.5 (HEK-Nav1.5), human hIPSC-derived sensory neurons (RealDRGTM from Anatomic Incorporated 1020F1-1M) and donor-derived DRG neurons were plated at low density on glass coverslips and processed for whole-cell patch clamp electrophysiology in voltage-clamp and/or current clamp mode. Whole-cell patch electrophysiological experiments were conducted following previously published studies (26). Current densities were obtained by dividing INa amplitude by membrane capacitance. Current –voltage relationships were generated by plotting current density as a function of the […]. Conductance (G Na) was calculated by the […]
where INa is the current amplitude at voltage Vm, and Erev is the Na+ reversal potential.
Activation curves were derived by plotting normalized GNa as a function of test potential and fitted using […]
Where GNa,Max is the maximum conductance, Va is the membrane potential of half-maximal activation, Em is the membrane voltage and k is the slope factor. For steady -state inactivation, normalized current amplitude (INa/INa,Max) at the test potential was plotted as a function of prepulse potential (Vm) and fitted using the […]
Where Vh is the potential of half-maximal inactivation, E m is the membrane voltage, and k is the slope factor.
Transient INa inactivation decay was estimated with the standard exponential equation. Inactivation time constant (tau, τ) was fitted with the following equation: […]
where I(t) is the amplitude of the current at time t and Iss is the steady-state current during a single voltage-step.
The goodness of fitting was determined by correlation coefficient (R), and the cutoff of R was set at 0.85. To observe effects on long-term inactivation (LTI), a four-step protocol was employed during which cells were subjected to four 0 mV, 20 ms depolarization pulses separated by −90 mV, 40 ms recovery intervals. To control for various cell sizes, the current densities were calculated by dividing INa peak current amplitude/membrane capacitance (Cm). To represent the fraction of channels entering into LTI, the peak INa observed during depolarization cycles 2-4 was normalized to the peak INa observed during depolarization cycle 1 (INa/INa,Cycle 1) and plotted as a function of the depolarization cycle.
The cumulative (frequency-dependent) use-dependency was determined by applying 20 pulses with a depolarization to −10 mV (50 ms duration) and 50 ms recovery intervals with a train of 20 pulses at 10 Hz from a holding potential at -70 mV. The current pulses were normalized to the first reco rded pulse and the currents at the 2nd to 20th pulses were compared. The same train was used to record use-dependency at various frequencies […]
The rate of recovery from inactivation was recorded at -80 mV with a standard repriming voltage protocol.
The cells were prepulsed to -20 mV for 20 ms to inactivate all currents, then driven back to the recovery potential (Vrec) for increasing recovery durations before the test pulse to 0 mV. The maximum pulse rate was 0.5 Hz. The […]
follows previous publications (16). The time constants were estimated from single exponential decay to time courses measured at recovery potentials ranging from -140 to -60 mV with the protocol as mentioned above.
Electrophysiological Recordings
HEK293 cells: Electrophysiological recordings in HEK293 stably expressing Nav1.7 (HEK-Nav1.7), Nav1.5 (HEK-Nav1.5) or Nav1.6 (HEK-Nav1.6) were performed at room temperature using a MultiClamp 700B or an Axopatch 200B amplifier (Molecular Devices) after incubating coverslips for 60 minutes either with 0.1% DMSO or 50 μM PW164 or ZL192 in the extracellular solution. The composition of recording solutions consisted of the […]
following salts: extracellular (mM): 140 NaCl, 3 KCl, 1 MgCl2, 1 CaCl2, 10 HEPES, 10 glucose, pH 7.3; […]
intracellular (mM): 130 CH3O3 SCs, 1 EGTA, 10 NaCl, 10 HEPES, pH 7.3. […]

T1 sequence (Q92913 1-192 partner limits assumed): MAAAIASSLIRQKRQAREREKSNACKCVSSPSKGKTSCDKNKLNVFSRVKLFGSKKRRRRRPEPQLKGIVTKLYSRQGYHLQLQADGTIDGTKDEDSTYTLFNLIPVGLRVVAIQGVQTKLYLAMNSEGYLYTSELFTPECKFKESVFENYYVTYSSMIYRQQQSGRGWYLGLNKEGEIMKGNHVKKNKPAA
T1 sequence (Q15858 1-1977 isoform Q15858-3): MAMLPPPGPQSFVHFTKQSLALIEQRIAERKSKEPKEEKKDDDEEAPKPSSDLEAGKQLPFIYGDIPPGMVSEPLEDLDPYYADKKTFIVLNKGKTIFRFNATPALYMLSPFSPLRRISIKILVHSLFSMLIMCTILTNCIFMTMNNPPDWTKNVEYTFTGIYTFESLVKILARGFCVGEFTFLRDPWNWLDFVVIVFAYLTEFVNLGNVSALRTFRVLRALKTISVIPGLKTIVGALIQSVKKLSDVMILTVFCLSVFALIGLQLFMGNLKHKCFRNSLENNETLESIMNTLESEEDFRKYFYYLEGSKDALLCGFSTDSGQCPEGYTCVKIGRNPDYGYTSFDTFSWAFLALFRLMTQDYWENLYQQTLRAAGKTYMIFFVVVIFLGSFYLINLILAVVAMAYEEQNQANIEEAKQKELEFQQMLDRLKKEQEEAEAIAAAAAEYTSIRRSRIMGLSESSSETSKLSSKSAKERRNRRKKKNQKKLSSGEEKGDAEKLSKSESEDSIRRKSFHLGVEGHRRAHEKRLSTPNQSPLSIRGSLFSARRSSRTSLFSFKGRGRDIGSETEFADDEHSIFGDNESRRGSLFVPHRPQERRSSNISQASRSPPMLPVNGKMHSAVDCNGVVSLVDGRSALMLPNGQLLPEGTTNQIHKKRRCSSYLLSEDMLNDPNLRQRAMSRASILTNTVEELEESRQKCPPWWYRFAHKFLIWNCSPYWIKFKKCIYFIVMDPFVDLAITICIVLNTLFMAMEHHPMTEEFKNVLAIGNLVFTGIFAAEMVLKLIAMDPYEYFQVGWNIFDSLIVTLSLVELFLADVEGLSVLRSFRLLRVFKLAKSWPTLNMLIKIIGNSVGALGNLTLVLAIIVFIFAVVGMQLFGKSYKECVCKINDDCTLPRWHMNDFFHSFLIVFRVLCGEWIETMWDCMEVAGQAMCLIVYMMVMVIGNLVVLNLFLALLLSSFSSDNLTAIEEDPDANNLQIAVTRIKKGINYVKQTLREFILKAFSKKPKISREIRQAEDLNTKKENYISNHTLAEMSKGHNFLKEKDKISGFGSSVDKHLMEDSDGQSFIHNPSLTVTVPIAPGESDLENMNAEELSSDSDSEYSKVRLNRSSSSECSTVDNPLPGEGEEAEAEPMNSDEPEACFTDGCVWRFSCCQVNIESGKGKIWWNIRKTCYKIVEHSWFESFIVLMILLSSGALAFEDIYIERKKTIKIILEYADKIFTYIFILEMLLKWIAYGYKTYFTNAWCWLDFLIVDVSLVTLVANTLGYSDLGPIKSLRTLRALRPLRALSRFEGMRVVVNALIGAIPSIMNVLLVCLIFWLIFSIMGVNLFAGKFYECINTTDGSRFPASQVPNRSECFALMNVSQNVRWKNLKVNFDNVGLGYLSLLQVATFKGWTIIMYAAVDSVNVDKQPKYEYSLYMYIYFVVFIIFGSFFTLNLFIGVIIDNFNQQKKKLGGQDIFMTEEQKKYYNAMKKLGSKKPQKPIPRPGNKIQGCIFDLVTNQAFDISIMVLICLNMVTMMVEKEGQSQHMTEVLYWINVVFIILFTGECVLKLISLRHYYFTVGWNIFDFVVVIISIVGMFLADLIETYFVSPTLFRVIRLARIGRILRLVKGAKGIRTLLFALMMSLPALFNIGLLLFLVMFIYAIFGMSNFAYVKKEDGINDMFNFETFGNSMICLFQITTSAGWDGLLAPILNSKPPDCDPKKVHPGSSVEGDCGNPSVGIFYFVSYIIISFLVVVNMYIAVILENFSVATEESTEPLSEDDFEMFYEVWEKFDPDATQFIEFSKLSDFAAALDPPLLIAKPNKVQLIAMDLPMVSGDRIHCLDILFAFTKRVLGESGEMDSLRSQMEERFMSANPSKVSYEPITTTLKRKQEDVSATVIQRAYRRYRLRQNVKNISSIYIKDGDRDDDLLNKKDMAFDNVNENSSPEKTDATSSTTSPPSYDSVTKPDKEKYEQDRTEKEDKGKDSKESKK

## COC(=O)[C@@H](NC(=O)[C@H](CCC(=O)OC(C)(C)C)NC(=O)[C@H](CC(C)C)NC(=O)[C@@H]1CCCN1C(=O)OCc1ccccc1)C(C)C [PW164] (Cbz-PLE(OtBu)V-OMe)
Nav1.7 + FGF13-GFP, recovery potential -100
  Time constant of repriming, Mean: 42.57 ms
Nav1.7 + FGF13-GFP, recovery potential -120
  Time constant of repriming, Mean: 33.57 ms
Nav1.7 + FGF13-GFP, recovery potential -140
  Time constant of repriming, Mean: 16.96 ms
Nav1.7 + GFP, recovery potential -60
  Time constant of repriming, Mean: 57.89 ms
Nav1.7 + GFP, recovery potential -70
  Time constant of repriming, Mean: 65.42 ms
Nav1.7 + GFP, recovery potential -80
  Time constant of repriming, Mean: 71.67 ms
Nav1.7 + GFP, recovery potential -90
  Time constant of repriming, Mean: 61.78 ms
Nav1.7 + GFP, recovery potential -100
  Time constant of repriming, Mean: 47.69 ms
Nav1.7 + GFP, recovery potential -120
  Time constant of repriming, Mean: 34.63 ms
Nav1.7 + GFP, recovery potential -140
  Time constant of repriming, Mean: 16.6 ms
FGF13-GFP + PW164 50 μM
  Activation: −19.7 ± 0.9 mV
  Long-term inactivation, 2nd Pulse: −69.72 ± 5.21 % maximal Na+ current
  Long-term inactivation, 3rd Pulse: −60.33 ± 5.60 % maximal Na+ current
  Long-term inactivation, 4th Pulse: −59.34 ± 4.68 % maximal Na+ current
  Peak Density: −26.7 ± 3.6 pA/pF
  Steady state inactivation: −64.7 ± 2.1 mV
  Tau (τ): 0.80 ± 0.03 ms
FGF13A GFP (FGF13-1a) + PW164
  Activation: −26.91 ± 1.25 mV
  Peak Density: −109.1 ± 11.7 pA/pF
  Steady state inactivation: −63.11 ± 2.14 mV
  Tau (τ): 1.41 ± 0.06 ms
FGF13A-GFP (FGF13-1a) + PW164
  Long-term inactivation, 2nd Pulse: −47.28 ± 4.68 % maximal Na+ current
  Long-term inactivation, 3rd Pulse: −35.27 ± 3.04 % maximal Na+ current
  Long-term inactivation, 4th Pulse: −29.22 ± 4.16 % maximal Na+ current
GFP + PW164 50 μM
  Activation: −26.1 ± 0.4 mV
  Long-term inactivation, 2nd Pulse: −67.94 ± 3.77 % maximal Na+ current
  Long-term inactivation, 3rd Pulse: −62.35 ± 5.35 % maximal Na+ current
  Long-term inactivation, 4th Pulse: −60.93 ± 3.90 % maximal Na+ current
  Peak Density: −69.2 ± 7.5 pA/pF
  Steady state inactivation: −83.5 ± 1.7 mV
  Tau (τ): 1.48 ± 0.25 ms
HEK-Nav1.7 coexpressing FGF13-GFP, Fig 1F, read-out: IC50, reversal of FGF13-induced increase in INa density
  IC50: 6.74 ± 0.5 µM
Nav1.7 + FGF13-GFP, at -60, N 5
  Time constant (ms), Mean (Figure 4J): 36.71 ms
Nav1.7 + FGF13-GFP, at -70, N 5
  Time constant (ms), Mean (Figure 4J): 42.79 ms
Nav1.7 + FGF13-GFP, at -80, N 5
  Time constant (ms), Mean (Figure 4J): 44.71 ms
Nav1.7 + FGF13-GFP, at -90, N 5
  Time constant (ms), Mean (Figure 4J): 37.77 ms
Nav1.7 + FGF13-GFP, at -100, N 5
  Time constant (ms), Mean (Figure 4J): 28.49 ms
Nav1.7 + FGF13-GFP, at -120, N 5
  Time constant (ms), Mean (Figure 4J): 23.55 ms
Nav1.7 + FGF13-GFP, at -140, N 5
  Time constant (ms), Mean (Figure 4J): 14.96 ms
Nav1.7 + GFP, at -60, N 6
  Time constant (ms), Mean (Figure 4J): 50.23 ms
Nav1.7 + GFP, at -70, N 6
  Time constant (ms), Mean (Figure 4J): 52.23 ms
Nav1.7 + GFP, at -80, N 6
  Time constant (ms), Mean (Figure 4J): 56.52 ms
Nav1.7 + GFP, at -90, N 6
  Time constant (ms), Mean (Figure 4J): 45.93 ms
Nav1.7 + GFP, at -100, N 6
  Time constant (ms), Mean (Figure 4J): 35.06 ms
Nav1.7 + GFP, at -120, N 6
  Time constant (ms), Mean (Figure 4J): 27.11 ms
Nav1.7 + GFP, at -140, N 6
  Time constant (ms), Mean (Figure 4J): 15.6 ms
Nav1.7 cells coexpressing FGF13-1a-GFP (FGF13S)
  activity on Nav1.7 currents: inactive
